In patent publication US12421260B2, “Neurokinin-1 antagonist” (SHANGHAI SHENGDI PHARMACEUTICAL CO., LTD, priority 2019, dated 2025):
Values after ≈ are worked out from the molar mass of the structure shown.

Experiments:
[1] = Chemical stability of the compounds (Test Example 1); format: physicochemical; settings: purity loss after placing for 7 days; 4° C. and room temperature
Method: 2.1 Test of Stability of the Compounds
About 1 mg of sample was weighed into a vial, then the vial was placed in a vacuum bag and the bag was vacuumized. Then the bag was put into a container containing color-changing silica gel and sealed. Two parallel samples were prepared. Enough samples were prepared according to the sampling time point and placed at 4° C. and room temperature respectively.

[2] = Water solubility (Test Example 1); format: physicochemical; settings: for solubility: aqueous buffer, thermodynamic from solid
Method: 1.1. Preparation of Reagents
The 100 mL strength reagents were prepared as follows:
pH=3.0: phosphate buffer solution: 100 ml of 20 mmol/L NaH2PO4, 0.1M H3PO4, adjusting pH to 3.0.
pH=4.0: phosphate buffer solution: 100 ml of 20 mmol/L NaH2PO4, 0.1M H3PO4, adjusting pH to 4.0. […]
An appropriate amount of test compound was accurately weighed. The solution was added at a small amount each time for several times and stirred until the compound was dissolved, and the content of the compound in the solution was determined.

[3] = Plasma stability test (Test Example 3); format: in vitro ADME; settings: human plasma; for plasma concentration of the compound of the examples / plasma concentration of rolapitant after metabolism of the compound of the examples: 37° C.; for stability and metabolism to rolapitant in plasma (in words): up to 180 min
Method: The compounds of Example 4, Example 6, Example 10 and Example 11.
Human fresh plasma was donated by volunteers with informed consent.
1) The test compounds in Table 3 were respectively prepared into 30 mM stock solutions with DMSO for later use.
2) The 30 mM stock solution was diluted with DMSO solution to solution I at a concentration of 1600 μM. Then the 1600 μM solution I was diluted with acetonitrile (ACN) to a working solution II at a concentration of 16 μM.
3) 7 time points of 0, 15, 30, 60, 90, 120 and 180 min were set in the experiment with two parallel samples for each time point. Two sample groups were set for each compound. 75 μL plasma and 5 μL of the above prepared working solution II with a concentration of 16 μM were added to each group. The reaction system was incubated at 37° C. until the preset time when the reaction was stopped by 300 μL of the ACN solution containing the internal standard. The reaction mixture was centrifuged at 3700 rpm for 10 min, and the supernatant was collected for analysis.
4) Preparation of the standard curve: the previously diluted 1600 μM solution I was diluted with acetonitrile to 1.5 μM/mL solution III as the standard curve for later use. The standard curve concentration was set to […]. After dilution of each concentration of the standard curve, 75 μL plasma was added to 5 μL of each concentration point at a final concentration of 0.02, 0.05, 0.1, 0.25, 0.75, 1.0 and 1.5 uM, respectively. 300 μL stop solution was then added to the samples quickly which was then centrifuged at 3700 rpm for 10 min, and the supernatant was collected for LC-MSMS analysis.

| plasma concentration of the compound of the examples ([3]; 0 min) [nM] | plasma concentration of the compound of the examples ([3]; 15 min) [nM] | plasma concentration of the compound of the examples ([3]; 30 min) [nM] | plasma concentration of the compound of the examples ([3]; 60 min) [nM] | plasma concentration of the compound of the examples ([3]; 90 min) [nM] | plasma concentration of the compound of the examples ([3]; 120 min) [nM] | plasma concentration of the compound of the examples ([3]; 180 min) [nM] | stability and metabolism to rolapitant in plasma (in words) [3] | Structure (SMILES) | Chemical stability [1] | also measured |
| --- | --- | --- | --- | --- | --- | --- | --- | --- | --- | --- |
| – | – | – | – | – | – | – | – | C[C@@H](OC[C@@]1(c2ccccc2)CC[C@]2(CCC(=O)N2)CN1C(=O)OCOC(=O)[C@@H](N)CCCCN)c1cc(C(F)(F)F)cc(C(F)(F)F)c1 [Example 17] | Moderate (purity reduced by 0.5%~2.0% after placing for 7 days) | – |
| 1160 | 980 | 990 | 1000 | 970 | 810 | 780 | relatively stable in plasma | C[C@@H](OC[C@@]1(c2ccccc2)CC[C@]2(CCC(=O)N2)CN1C(=O)OCCN1CCN(C)CC1)c1cc(C(F)(F)F)cc(C(F)(F)F)c1 [Example 4] | Good (purity reduced by <0.5% after placing for 7 days) | solubility ([2]; phosphate buffer, PH = 3): 2080 µg/mL (≈ 3100 µM) |
| 1040 | 920 | 970 | 960 | 930 | 950 | 880 | relatively stable in plasma | CC(C)[C@H](N)C(=O)OCCCOC(=O)N1C[C@@]2(CCC(=O)N2)CC[C@@]1(CO[C@H](C)c1cc(C(F)(F)F)cc(C(F)(F)F)c1)c1ccccc1.O=C(O)C(F)(F)F [Example 10] | – | Water solubility ([2]; PH = 3): 1.86 mg/mL(PH = 3) mg/ml; plasma concentration of rolapitant after metabolism of the compound of the examples ([3]; 0 min): 0 nM; plasma concentration of rolapitant after metabolism of the compound of the examples ([3]; 15 min): 0 nM; plasma concentration of rolapitant after metabolism of the compound of the examples ([3]; 30 min): 0 nM; plasma concentration of rolapitant after metabolism of the compound of the examples ([3]; 60 min): 0 nM; plasma concentration of rolapitant after metabolism of the compound of the examples ([3]; 90 min): 0 nM; plasma concentration of rolapitant after metabolism of the compound of the examples ([3]; 120 min): 0 nM; plasma concentration of rolapitant after metabolism of the compound of the examples ([3]; 180 min): 0 nM |
| – | – | – | – | – | – | – | – | CC(OC(=O)[C@@H](N)C(C)C)OC(=O)N1C[C@@]2(CCC(=O)N2)CC[C@@]1(CO[C@H](C)c1cc(C(F)(F)F)cc(C(F)(F)F)c1)c1ccccc1 (stereo partly shown) [Example 14] | Good (purity reduced by <0.5% after placing for 7 days) | solubility ([2]; phosphate buffer, PH = 4): 4500 µg/mL (≈ 6540 µM) |
| – | – | – | – | – | – | – | – | Cc1oc(=O)oc1CN1C(=O)CC[C@]12CC[C@@](CO[C@H](C)c1cc(C(F)(F)F)cc(C(F)(F)F)c1)(c1ccccc1)NC2 [Example 3] | Good (purity reduced by <0.5% after placing for 7 days) | solubility ([2]; PH = 5): < 100 µg/mL |
| – | – | – | – | – | – | – | – | CC(C)[C@@H](N)C(=O)OCOC(=O)N1C[C@@]2(CCC(=O)N2)CC[C@@]1(CO[C@H](C)c1cc(C(F)(F)F)cc(C(F)(F)F)c1)c1ccccc1.O=C(O)C(F)(F)F [Example 18] | Good (purity reduced by <0.5% after placing for 7 days) | Water solubility ([2]; PH = 4): 2.62 mg/mL (PH = 4) mg/ml |
| – | – | – | – | – | – | – | – | C[C@@H](OC[C@@]1(c2ccccc2)CC[C@]2(CCC(=O)N2)CN1C(=O)OCOC(=O)CN)c1cc(C(F)(F)F)cc(C(F)(F)F)c1 [Example 12] | Poor (purity reduced by >2.0% after placing for 7 days) | – |
| – | – | – | – | – | – | – | – | C[C@@H](OC[C@@]1(c2ccccc2)CC[C@]2(CCC(=O)N2COC(=O)N(C)C)CN1)c1cc(C(F)(F)F)cc(C(F)(F)F)c1 [Example 9] | Good (purity reduced by <0.5% after placing for 7 days) | solubility ([2]; phosphate buffer, PH = 3): < 100 µg/mL |
| 1010 | 990 | 910 | 920 | 1030 | 970 | 950 | relatively stable in plasma | CC(C)[C@H](N)C(=O)OCCOC(=O)N1C[C@@]2(CCC(=O)N2)CC[C@@]1(CO[C@H](C)c1cc(C(F)(F)F)cc(C(F)(F)F)c1)c1ccccc1.O=C(O)C(F)(F)F [Example 11] | Good (purity reduced by <0.5% after placing for 7 days) | Water solubility ([2]; PH = 3): 2.81 mg/mL(PH = 3) mg/ml; plasma concentration of rolapitant after metabolism of the compound of the examples ([3]; 0 min): 10 nM; plasma concentration of rolapitant after metabolism of the compound of the examples ([3]; 15 min): 0 nM; plasma concentration of rolapitant after metabolism of the compound of the examples ([3]; 30 min): 0 nM; plasma concentration of rolapitant after metabolism of the compound of the examples ([3]; 60 min): 10 nM; plasma concentration of rolapitant after metabolism of the compound of the examples ([3]; 90 min): 0 nM; plasma concentration of rolapitant after metabolism of the compound of the examples ([3]; 120 min): 0 nM; plasma concentration of rolapitant after metabolism of the compound of the examples ([3]; 180 min): 0 nM |
| – | – | – | – | – | – | – | – | C[C@H](N)C(=O)OCOC(=O)N1C[C@@]2(CCC(=O)N2)CC[C@@]1(CO[C@H](C)c1cc(C(F)(F)F)cc(C(F)(F)F)c1)c1ccccc1 [Example 13] | Moderate (purity reduced by 0.5%~2.0% after placing for 7 days) | – |

| Structure (SMILES) | plasma concentration of the compound of the examples ([3]; 0 min) [nM] | plasma concentration of the compound of the examples ([3]; 15 min) [nM] | plasma concentration of the compound of the examples ([3]; 30 min) [nM] | plasma concentration of the compound of the examples ([3]; 60 min) [nM] | plasma concentration of the compound of the examples ([3]; 90 min) [nM] | plasma concentration of the compound of the examples ([3]; 120 min) [nM] | plasma concentration of the compound of the examples ([3]; 180 min) [nM] | stability and metabolism to rolapitant in plasma (in words) [3] | Chemical stability [1] | also measured |
| --- | --- | --- | --- | --- | --- | --- | --- | --- | --- | --- |
| C[C@@H](OC[C@@]1(c2ccccc2)CC[C@]2(CCC(=O)N2C(=O)OCC(=O)O)CN1)c1cc(C(F)(F)F)cc(C(F)(F)F)c1 [Example 6] | 980 | 850 | 910 | 850 | 770 | 700 | 530 | overall amount of metabolism in plasma is relatively small | Good (purity reduced by <0.5% after placing for 7 days) | solubility ([2]; phosphate buffer, PH = 3): 1120 µg/mL (≈ 1860 µM) |
